Assay results as given in PubChem BioAssay AID1963427 (Molecular Pharmacology Branch, DTP, NCI, 2024).
Values belong to the molecule of their own block, whether it stands above or below them.

Test system: 317291-083-R-J1-PDC complex spheroid growth
Test: Anticancer human tumor 317291-083-R-J1-PDC patient-derived soft tissue sarcoma cell line growth inhibition [Asc]
Settings: for IC50: curve of first compound; for viability, T/C: stronger effect = lower value
Method in brief: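 Concentration series start at each agent's clinical Cmax, or at 10 microM when none is established, and drop in half-log steps; agents are applied alone or together to complex spheroids built with HUVEC and hMSC.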

[1] = second compound 0.00316 µM, first compound 0.0316 µM
[2] = second compound 0.00316 µM, first compound 0.1 µM
[3] = second compound 0.00316 µM, first compound 0.316 µM
[4] = second compound 0.00316 µM, first compound 1 µM
[5] = second compound 0.00316 µM, first compound 3.16 µM
[6] = second compound 0.00316 µM, first compound 10 µM
[7] = second compound 0.01 µM, first compound 0.0316 µM
[8] = second compound 0.01 µM, first compound 0.1 µM
[9] = second compound 0.01 µM, first compound 0.316 µM
[10] = second compound 0.01 µM, first compound 1 µM
[11] = second compound 0.01 µM, first compound 3.16 µM
[12] = second compound 0.01 µM, first compound 10 µM
[13] = second compound 0.0316 µM, first compound 0.0316 µM
[14] = second compound 0.0316 µM, first compound 0.1 µM
[15] = second compound 0.0316 µM, first compound 0.316 µM
[16] = second compound 0.0316 µM, first compound 1 µM
[17] = second compound 0.0316 µM, first compound 3.16 µM
[18] = second compound 0.0316 µM, first compound 10 µM
[19] = second compound 0.1 µM, first compound 0.0316 µM
[20] = second compound 0.1 µM, first compound 0.1 µM
[21] = second compound 0.1 µM, first compound 0.316 µM
[22] = second compound 0.1 µM, first compound 1 µM
[23] = second compound 0.1 µM, first compound 3.16 µM
[24] = second compound 0.1 µM, first compound 10 µM
[25] = second compound 0.316 µM, first compound 0.0316 µM
[26] = second compound 0.316 µM, first compound 0.1 µM
[27] = second compound 0.316 µM, first compound 0.316 µM
[28] = second compound 0.316 µM, first compound 1 µM
[29] = second compound 0.316 µM, first compound 3.16 µM
[30] = second compound 0.316 µM, first compound 10 µM
[31] = second compound 1 µM, first compound 0.0316 µM
[32] = second compound 1 µM, first compound 0.1 µM
[33] = second compound 1 µM, first compound 0.316 µM
[34] = second compound 1 µM, first compound 1 µM
[35] = second compound 1 µM, first compound 3.16 µM
[36] = second compound 1 µM, first compound 10 µM
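Also: compound exposure lasted seven days after spheroids formed for three days.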
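For viability, T/C in this document: 100% = DMSO vehicle control wells.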

IC50 (second compound 0.00316 µM): 6.74 µM
IC50 (second compound 0.01 µM): 8.01 µM
IC50 (second compound 0.0316 µM): 4.12 µM
IC50 (second compound 0.1 µM): 3.61 µM
IC50 (second compound 0.316 µM): < 0.0316 µM
IC50 (second compound 1 µM): < 0.0316 µM
SMILES: C#Cc1c(F)ccc2cc(O)cc(-c3ncc4c(N5CC6CCC(C5)N6)nc(OCC56CCCN5CC(F)C6)nc4c3F)c12 (stereo not drawn) + CNC(C)C(=O)NC1CN(S(=O)(=O)c2cccc(S(=O)(=O)N3CCC4CCC(C(=O)NC(c5ccccc5)c5ccccc5)N4C(=O)C(NC(=O)C(C)NC)C3)c2)CCC2CCC(C(=O)NC(c3ccccc3)c3ccccc3)N2C1=O
viability, T/C [1]: 76.3%
viability, T/C [2]: 75.7%
viability, T/C [3]: 72.3%
viability, T/C [4]: 84.3%
viability, T/C [5]: 87%
viability, T/C [6]: 34.8%
viability, T/C [7]: 84.2%
viability, T/C [8]: 71.6%
viability, T/C [9]: 57.8%
viability, T/C [10]: 81.4%
viability, T/C [11]: 76%
viability, T/C [12]: 44.3%
viability, T/C [13]: 67.5%
viability, T/C [14]: 66.6%
viability, T/C [15]: 59.3%
viability, T/C [16]: 63.9%
viability, T/C [17]: 58.1%
viability, T/C [18]: 23.5%
viability, T/C [19]: 54.9%
viability, T/C [20]: 55%
viability, T/C [21]: 53.3%
viability, T/C [22]: 50.8%
viability, T/C [23]: 59%
viability, T/C [24]: 15.1%
viability, T/C [25]: 42.9%
viability, T/C [26]: 46.2%
viability, T/C [27]: 44.3%
viability, T/C [28]: 31.9%
viability, T/C [29]: 43.6%
viability, T/C [30]: 10.6%
viability, T/C [31]: 31.1%
viability, T/C [32]: 29%
viability, T/C [33]: 29.4%
viability, T/C [34]: 24.4%
viability, T/C [35]: 26.2%
viability, T/C [36]: 8.59%

IC50 (second compound 0.00316 µM): 0.948 µM
IC50 (second compound 0.01 µM): 1.03 µM
IC50 (second compound 0.0316 µM): 0.559 µM
IC50 (second compound 0.1 µM): 0.071 µM
IC50 (second compound 0.316 µM): < 0.0316 µM
IC50 (second compound 1 µM): < 0.0316 µM
SMILES: C=C(F)C(=O)N1CCN(c2nc(OCC3CCCN3C)nc3c2CCN(c2cccc4cccc(Cl)c24)C3)CC1CC#N (stereo not drawn) + CNC(C)C(=O)NC1CN(S(=O)(=O)c2cccc(S(=O)(=O)N3CCC4CCC(C(=O)NC(c5ccccc5)c5ccccc5)N4C(=O)C(NC(=O)C(C)NC)C3)c2)CCC2CCC(C(=O)NC(c3ccccc3)c3ccccc3)N2C1=O
viability, T/C [1]: 90.9%
viability, T/C [2]: 69.3%
viability, T/C [3]: 67%
viability, T/C [4]: 54.3%
viability, T/C [5]: 25%
viability, T/C [6]: 0.13%
viability, T/C [7]: 66.7%
viability, T/C [8]: 61.8%
viability, T/C [9]: 68.5%
viability, T/C [10]: 50.4%
viability, T/C [11]: 9.6%
viability, T/C [12]: 0.1%
viability, T/C [13]: 62%
viability, T/C [14]: 54.2%
viability, T/C [15]: 46.8%
viability, T/C [16]: 46.6%
viability, T/C [17]: 8.82%
viability, T/C [18]: 0.1%
viability, T/C [19]: 59.1%
viability, T/C [20]: 39.9%
viability, T/C [21]: 38.5%
viability, T/C [22]: 38.2%
viability, T/C [23]: 11.7%
viability, T/C [24]: 0.1%
viability, T/C [25]: 38.1%
viability, T/C [26]: 29.4%
viability, T/C [27]: 35%
viability, T/C [28]: 29.3%
viability, T/C [29]: 13.1%
viability, T/C [30]: 0.44%
viability, T/C [31]: 37.9%
viability, T/C [32]: 32.2%
viability, T/C [33]: 32%
viability, T/C [34]: 19.4%
viability, T/C [35]: 9.16%
viability, T/C [36]: 0.2%

IC50 (second compound 0.00316 µM): 9.72 µM
IC50 (second compound 0.01 µM): > 10 µM
IC50 (second compound 0.0316 µM): 5.56 µM
IC50 (second compound 0.1 µM): 4.4 µM
IC50 (second compound 0.316 µM): 1.09 µM
IC50 (second compound 1 µM): < 0.0316 µM
SMILES: C=CC(=O)N1CCN(c2nc(=O)n(-c3c(C)ccnc3C(C)C)c3nc(-c4c(O)cccc4F)c(F)cc23)C(C)C1 (stereo not drawn) + CNC(C)C(=O)NC1CN(S(=O)(=O)c2cccc(S(=O)(=O)N3CCC4CCC(C(=O)NC(c5ccccc5)c5ccccc5)N4C(=O)C(NC(=O)C(C)NC)C3)c2)CCC2CCC(C(=O)NC(c3ccccc3)c3ccccc3)N2C1=O
viability, T/C [1]: 96%
viability, T/C [2]: 100%
viability, T/C [3]: 85.2%
viability, T/C [4]: 91.3%
viability, T/C [5]: 93.5%
viability, T/C [6]: 48.9%
viability, T/C [7]: 92.9%
viability, T/C [8]: 77.4%
viability, T/C [9]: 83.3%
viability, T/C [10]: 97.1%
viability, T/C [11]: 62.5%
viability, T/C [12]: 56.9%
viability, T/C [13]: 93.1%
viability, T/C [14]: 70.1%
viability, T/C [15]: 77.4%
viability, T/C [16]: 73.7%
viability, T/C [17]: 71.7%
viability, T/C [18]: 28.8%
viability, T/C [19]: 68.7%
viability, T/C [20]: 54.2%
viability, T/C [21]: 59.9%
viability, T/C [22]: 62.8%
viability, T/C [23]: 57.6%
viability, T/C [24]: 30.4%
viability, T/C [25]: 57.2%
viability, T/C [26]: 42.9%
viability, T/C [27]: 62.1%
viability, T/C [28]: 48.9%
viability, T/C [29]: 39%
viability, T/C [30]: 23.5%
viability, T/C [31]: 49%
viability, T/C [32]: 28.6%
viability, T/C [33]: 32.2%
viability, T/C [34]: 35%
viability, T/C [35]: 30.6%
viability, T/C [36]: 13.5%

IC50 (second compound 0.00316 µM): > 3 µM
IC50 (second compound 0.01 µM): > 3 µM
IC50 (second compound 0.0316 µM): > 3 µM
IC50 (second compound 0.1 µM): > 3 µM
IC50 (second compound 0.316 µM): < 0.00949 µM
IC50 (second compound 1 µM): < 0.00949 µM
SMILES: CCN1C(C(=O)NC23CCC(C(=O)O)(CC2)CC3)C(c2cccc(Cl)c2F)C2(C(=O)Nc3cc(Cl)ccc32)C12CCCCC2 (stereo not drawn) + CNC(C)C(=O)NC1CN(S(=O)(=O)c2cccc(S(=O)(=O)N3CCC4CCC(C(=O)NC(c5ccccc5)c5ccccc5)N4C(=O)C(NC(=O)C(C)NC)C3)c2)CCC2CCC(C(=O)NC(c3ccccc3)c3ccccc3)N2C1=O
viability, T/C (second compound 0.00316 µM, first compound 0.00949 µM): 86%
viability, T/C (second compound 0.00316 µM, first compound 0.03 µM): 113%
viability, T/C (second compound 0.00316 µM, first compound 0.0949 µM): 100%
viability, T/C (second compound 0.00316 µM, first compound 0.3 µM): 108%
viability, T/C (second compound 0.00316 µM, first compound 0.949 µM): 84.6%
viability, T/C (second compound 0.00316 µM, first compound 3 µM): 65.1%
viability, T/C (second compound 0.01 µM, first compound 0.00949 µM): 68.5%
viability, T/C (second compound 0.01 µM, first compound 0.03 µM): 95.9%
viability, T/C (second compound 0.01 µM, first compound 0.0949 µM): 83.7%
viability, T/C (second compound 0.01 µM, first compound 0.3 µM): 71.9%
viability, T/C (second compound 0.01 µM, first compound 0.949 µM): 63.3%
viability, T/C (second compound 0.01 µM, first compound 3 µM): 56.1%
viability, T/C (second compound 0.0316 µM, first compound 0.00949 µM): 82.5%
viability, T/C (second compound 0.0316 µM, first compound 0.03 µM): 85.6%
viability, T/C (second compound 0.0316 µM, first compound 0.0949 µM): 79.2%
viability, T/C (second compound 0.0316 µM, first compound 0.3 µM): 78.1%
viability, T/C (second compound 0.0316 µM, first compound 0.949 µM): 63.8%
viability, T/C (second compound 0.0316 µM, first compound 3 µM): 60.5%
viability, T/C (second compound 0.1 µM, first compound 0.00949 µM): 55.4%
viability, T/C (second compound 0.1 µM, first compound 0.03 µM): 61.9%
viability, T/C (second compound 0.1 µM, first compound 0.0949 µM): 66.2%
viability, T/C (second compound 0.1 µM, first compound 0.3 µM): 67.3%
viability, T/C (second compound 0.1 µM, first compound 0.949 µM): 60%
viability, T/C (second compound 0.1 µM, first compound 3 µM): 42.5%
viability, T/C (second compound 0.316 µM, first compound 0.00949 µM): 47.5%
viability, T/C (second compound 0.316 µM, first compound 0.03 µM): 55.3%
viability, T/C (second compound 0.316 µM, first compound 0.0949 µM): 45.5%
viability, T/C (second compound 0.316 µM, first compound 0.3 µM): 46.7%
viability, T/C (second compound 0.316 µM, first compound 0.949 µM): 49.4%
viability, T/C (second compound 0.316 µM, first compound 3 µM): 45.2%
viability, T/C (second compound 1 µM, first compound 0.00949 µM): 41.2%
viability, T/C (second compound 1 µM, first compound 0.03 µM): 31.3%
viability, T/C (second compound 1 µM, first compound 0.0949 µM): 32.4%
viability, T/C (second compound 1 µM, first compound 0.3 µM): 35.4%
viability, T/C (second compound 1 µM, first compound 0.949 µM): 30.5%
viability, T/C (second compound 1 µM, first compound 3 µM): 27.8%
